These results are taken from ChEMBL document CHEMBL1212699, “Chemical approaches to understanding O-GlcNAc glycosylation in the brain” (Nat Chem Biol, 2008).

The experiment can be described thus: Inhibition of beta-N-acetylglucosaminidase.

Take `CC(C)C(=O)N[C@H]1c2nc(CCc3ccccc3)cn2[C@H](CO)[C@@H](O)[C@@H]1O`: the Ki amounted to 4.6 pM. This lies in the picomolar range.
